Common to all, as to type: cell-based
One assay deals with T24. The assay can be described thus: Growth inhibition, modified MTT assay, T24. The settings on record: Homo sapiens, T-24, mean of 3 independent tests. On the procedure: (§1) The growth inhibition was evaluated by the modified MTT assay. Briefly, the cells were seeded at 1×10^4 cells/well in 96-well plates (Falcon, Calif., USA), and incubated for 24 h in […] culture media with 10% FCS. The media were then replaced by serum-free medium. After 24 h, the media were placed in triplicate with grade concentrations of compounds. As controls, the cells were cultivated in DMEM/F12 only. The cells were then treated by MTT (Sigma, USA) assay, […] (5 g/L) for 4 h. After the removal of the supernatant, the purple-blue sediment was dissolved in 100 μL/well DMSO, and the optical densities were read on the multi-well scanning spectrophotometer (Labsystems Dragon, Finland) at 492 nm (A492). The growth inhibition rate (GIR) of the treated cells was calculated using Equation: GIR(%)={1−[A490/A490(control)]}×100% The results were also converted to IC50 (the compound concentration required for 50% growth inhibition of tumor cells), which were calculated by using the sigmoidal fitting model by the Origin 7.0 software (OriginLab, Northampton, Mass., USA). The mean IC50 was determined from the results of 3 independent tests.
A general note: Tetrazolium assays rely on reduction of a dye to a coloured formazan, in cell work by metabolically active cells.

The test system of a further assay is SPC-A1. The assay can be described thus: Growth inhibition, modified MTT assay, SPC-A1. The settings on record: SPCA1, mean of 3 independent tests. As to the method:
as §1

The subject of the next assay is MCF-7. The assay can be described thus: Growth inhibition, modified MTT assay, MCF-7. The note with it: Homo sapiens, MCF7; MCF-7, MTT, mean of 3 independent tests. As to the method:
as §1

The subject of a further assay is HepG2. The experiment in a line: Growth inhibition, modified MTT assay, HepG2. The settings on record: Homo sapiens, mean of 3 independent tests. On the procedure:
as §1

The next assay deals with T1, PPAR-γ (Homo sapiens, UniProt P37231).
T1 construct: expressed in transfected cells; host or cells: U2OS cells, transiently transfected with pcDNA3.1 expression vectors (FuGene6)
T1 sequence (P37231 1-505): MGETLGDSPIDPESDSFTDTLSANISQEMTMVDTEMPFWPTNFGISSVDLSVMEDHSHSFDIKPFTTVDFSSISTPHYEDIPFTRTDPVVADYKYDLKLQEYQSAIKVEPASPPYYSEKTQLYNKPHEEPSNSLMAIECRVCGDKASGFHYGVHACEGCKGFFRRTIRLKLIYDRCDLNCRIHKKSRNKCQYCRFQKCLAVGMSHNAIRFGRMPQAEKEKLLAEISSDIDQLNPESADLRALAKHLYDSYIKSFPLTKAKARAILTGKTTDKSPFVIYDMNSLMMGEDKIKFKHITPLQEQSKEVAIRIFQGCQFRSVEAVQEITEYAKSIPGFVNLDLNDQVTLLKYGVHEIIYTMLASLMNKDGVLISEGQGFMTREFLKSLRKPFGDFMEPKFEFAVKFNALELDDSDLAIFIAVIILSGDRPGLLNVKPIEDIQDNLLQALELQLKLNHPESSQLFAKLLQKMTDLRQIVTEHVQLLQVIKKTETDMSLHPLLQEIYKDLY
T1 sequence (P19793 1-462 partner): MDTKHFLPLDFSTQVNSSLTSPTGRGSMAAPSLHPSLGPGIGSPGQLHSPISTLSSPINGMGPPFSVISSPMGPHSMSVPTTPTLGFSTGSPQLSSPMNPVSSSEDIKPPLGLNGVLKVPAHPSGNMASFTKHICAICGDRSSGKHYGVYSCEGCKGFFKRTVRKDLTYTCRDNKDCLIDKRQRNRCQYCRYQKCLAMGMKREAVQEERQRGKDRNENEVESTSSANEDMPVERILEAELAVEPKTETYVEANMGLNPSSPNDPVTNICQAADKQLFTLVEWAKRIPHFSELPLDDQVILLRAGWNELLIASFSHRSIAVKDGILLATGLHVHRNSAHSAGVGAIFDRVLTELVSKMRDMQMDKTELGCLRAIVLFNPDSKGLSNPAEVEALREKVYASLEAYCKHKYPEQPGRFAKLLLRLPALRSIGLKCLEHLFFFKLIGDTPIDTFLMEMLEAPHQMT
The experiment in a line: Transient transfection and transcription assay (luciferase reporter, U2OS cells). The settings on record: 24 h treatment. As to the method: cDNAs for Human RXR, PPAR were obtained by RTPCR from the human liver or adipose tissues. Amplified cDNAs were cloned into pcDNA3.1 expression vector and the inserts were confirmed by sequencing. U2OS cells were cultured in McCoy's 5A with 10% heat-inactivated fetal bovine serum in a humidified 5% CO2 atmosphere at 37° C. Cells were seeded in 96-well plates the day before transfection to give a confluence of 50-80% at transfection. A total of 60 ng of DNA containing 10 ng of hRXR, 10 ng of pCMV Gal, 10 ng of nuclear receptor expression vectors and 30 ng of the corresponding reporters were cotransfected per well using FuGene6 transfection reagent according to the manufacturer's instructions. […] The final concentration of DMSO in culture medium was 0.1%. […] Luciferase activity was monitored using the luciferase assay kit according to the manufacturers instructions. Light emission was read in a Labsystems Ascent Fluoroskan reader. To measure galactosidase activity to normalize the luciferase data, 50 IL of supernatant from each transfection lysate was transferred to a new microplate. Galactosidase assays were performed in the microwell plates using a kit from Promega and read in a microplate reader. Compounds were tested in five concentrations ranging from 0.01 to 10 μM. […] The results were expressed as means (SD).

This note sets out measurements from patent publication US8513233B2, “Pyrimidinyl-propionic acid derivatives and their use as PPAR agonists” (Shanghai Institute of Materia Medica, CAS, priority 2007, dated 2013).

As a reminder, the IC50 is the concentration that gives 50% inhibition. A lower IC50 goes with higher potency. Usually EC50 stands for the concentration that produces a half-maximal response. A high value points to a need for much substance.

For `CC(Cc1ccc(Oc2cc(N3CCN(Cc4ccco4)CC3)nc(N)n2)cc1)(Oc1ccccc1)C(=O)O` (stereo not drawn) [Compound 37, 3-{4-[2-Amino-6-(4-furan-2-ylmethyl-piperazin-1-yl)-pyrimidin-4-yloxy]phenyl}-2-methyl-2-phenoxy-propionic acid], the IC50 in the assay on T24 was 40.6 µM; in the assay on SPC-A1, 37.6 µM; with MCF-7, 47.6 µM; with HepG2, above 50 µM. The EC50 on PPAR-γ was 3.89 µM.

Take `CC(Cc1ccc(Oc2cc(N3CCN(CC4CCCCC4)CC3)nc(N)n2)cc1)(Oc1ccccc1)C(=O)O` (stereo not drawn) [Compound 27, 3-{4-[2-Amino-6-(4-cyclohexylmethyl-piperazin-1-yl)-pyrimidin-4-yloxy]-phenyl}-2-methyl-2-phenoxy-propionic acid]: the 50% inhibitory concentration (IC50) in the assay with T24 is above 50 µM; in the assay on SPC-A1 it was above 50 µM; in the assay on MCF-7, above 50 µM; in the assay on HepG2 it was 44.5 µM. Further, the EC50 on PPAR-γ is 5.37 µM.

For `CC(Cc1ccc(Oc2cc(N3CCN(Cc4ccccc4)CC3)nc(N)n2)cc1)(Oc1ccc(C(F)(F)F)cc1)C(=O)O` (stereo not drawn) [Compound 32, 3-{4-[2-Amino-6-(4-benzyl-piperazin-1-yl)-pyrimidin-4-yloxy]-phenyl}-2-methyl-2-(4-trifluoromethyl-phenoxy)-propionic acid], the IC50 in the assay on T24 is 37.7 µM; in the assay on SPC-A1 it was 28 µM; in the assay on MCF-7, 34.2 µM; with HepG2 it was 30 µM. For the same compound, the EC50 at PPAR-γ came out at 2.24 µM.

For the compound `CC(Cc1ccc(Oc2cc(N3CCN(c4ncccn4)CC3)nc(N)n2)cc1)(Oc1ccccc1)C(=O)O` (stereo not drawn) [Compound 20, 3-{4-[2-Amino-6-(4-pyrimidin-2-yl-piperazin-1-yl)-pyrimidin-4-yloxy]-phenyl}-2-methyl-2-phenoxy-propionic acid], the IC50 is 20.1 µM in the assay with T24, 29.1 µM in the assay with SPC-A1, 35.7 µM in the assay with MCF-7 and 32.6 µM with HepG2. This compound also yielded an EC50 on PPAR-γ of 5.89 µM.

Consider `CC(Cc1ccc(Oc2cc(N3CCN(Cc4ccccc4)CC3)nc(N)n2)cc1)(Oc1ccc(-c2ccccc2)cc1)C(=O)O` (stereo not drawn) [Compound 29, 3-{4-[2-Amino-6-(4-benzyl-piperazin-1-yl)-pyrimidin-4-yloxy]-phenyl}-2-(biphenyl-4-yloxy)-2-methyl-propionic acid], for which the IC50 in the assay on T24 is 40 µM; in the assay with SPC-A1, 34.1 µM; in the assay with MCF-7, above 50 µM; in the assay on HepG2 it was above 50 µM. On PPAR-γ, this compound displayed an EC50 of 2.57 µM.

For the compound `Cc1ccc(OC(C)(Cc2ccc(Oc3cc(N4CCN(Cc5ccccc5)CC4)nc(N)n3)cc2)C(=O)O)cc1` (stereo not drawn) [Compound 31, 3-{4-[2-Amino-6-(4-benzyl-piperazin-1-yl)-pyrimidin-4-yloxy]-phenyl}-2-methyl-2-p-tolyloxy-propionic acid], the IC50 in the assay with T24 was found to be 40.8 µM; in the assay on SPC-A1, 35.3 µM; with MCF-7, 29.3 µM; in the assay on HepG2, 45.5 µM. At PPAR-γ, this compound gave a 50% effective concentration (EC50) of 3.8 µM.
